≈ marks a conversion by molar mass, not a printed value. Entries after “also recorded” stand apart in the source; their conditions may differ.
Key:
[1] = tested on: E. coli (ATCC 25922) transformed with pMM plasmid bearing APH(3')IIa; experiment: MIC, kanamycin/neomycin resistant E. coli; assay type: cell-based; details: growth inhibition greater than 90%
Method: (§1) E. coli (ATCC 25922) and P. aeruginosa (ATCC 27853) (BD Bioscience) were inoculated in 3 mL of the medium 2 (U.S. Pharmacopia), containing 6 g peptone, 3 g yeast extract and 1.5 g beef extract per 1 L, pH 6.6, and were grown in a shaker for 6 h at 37° C. until an OD 560=0.6-0.8 was reached.
(§2) Minimal inhibitory concentrations (MIC) were measured according to the published method (Greenberg, W. A., Priestley, E. S., Sears, P. S., Alper, P. B., Rosenbohm, C., Hendrix, M., Hung, S.-C., & Wong, C.-H. (1999) J. Am. Chem. Soc. 121, 6527-6541). E. coli (ATCC 25922) (both wild type and pMM-transformed) and P. aeruginosa (ATCC 27853) were grown in medium 2 to an optical density OD 600 of 0.6-0.8. The inoculi were diluted to OD 600 ˜0.1 in medium 2 and 1 mL of the culture was placed in 13 mL test tubes. The desired concentrations of antibiotic were added from stock solutions. […] The absorbance at 600 nm of each sample was read and MIC was taken as the lowest antibiotic concentration inhibiting bacterial growth by greater than 90%.

[2] = tested on: E. coli S30 extract, containing 70S ribosomes; experiment: In vitro protein translation (CAT mRNA, 35S methionine incorporation); assay type: biochemical; details: quantitation of gel bands, read-out: IC50, concentration producing 50% inhibition of translation
Method: Protein translation was performed from chloramphenicol acetyl transferase (CAT) mRNA. […] A commercial E. coli ribosomal suspension was supplemented with an E. coli extract containing the required elements for translation. These include translation factors, tRNAs, and aminoacyl tRNA synthases. Plasmid, T7 RNA polymerase and amino acids were added to the reaction mixture, and both transcription and translation steps were performed in the same vial. The effects of the aminoglycosides on the translation process were evaluated by measuring the incorporation of ^35S methionine in the translated chloramphenicol acetyl transferase protein.
In vitro translation was performed by using PROTEINscript™-PRO (Ambion) kit. […] Reaction mixtures contained appropriate concentrations of antibiotic (neomycin B, D- and L-neamine). The protein was translated from CAT mRNA, transcribed from control DNA template containing CAT gene under control of the T7 promotor. The product, ˜25 kDa chloramphenicol acetyl transferase, was labeled during translation with 1 μCi ^35S methionine (New England Nuclear) per reaction (no cold methionine was added).
Following the translation, the samples were analyzed by electrophoresis on 4-20% SDS mini-gels (Invitrogen) for 1.5 h at 120V. Gels were fixed with 40% methanol/10% acetic acid and exposed to Molecular Dynamics phosphoimager plates, which were read on a Personal FX phosphoimager (Bio-Rad) and quantitated using QuantityOne™ software.

80S ribosome = experiment: Fluorescence anisotropy binding to 80S ribosomes; parameters: species or system yeast (S. cerevisiae); details: competition with CRP, yeast ribosomes; read-out: Dissociation constant (KD) with 80S ribosome
Method: (§3) After establishing the lack of stereospecificity in the binding of aminoglycosides to the A-site RNA constructs (FIG. 9A-C) where the binding affinity, KD, is about 0.1 μM to about 100 μM, the stereospecificity of aminoglycoside binding to intact ribosomes was determined. Both yeast and E. coli ribosomes were prepared and aminoglycoside binding was measured using fluorescence anisotropy methods. For example, fluorescence anisotropy methods recited in Wang, Y., and Rando, R. R. Chem. Biol. (1995) 2, 281-290; and Wang, Y., Hamasaki, K., and Rando, R. R. Biochemistry (1997) 36,768-779. CRP was used as the binding probe. […] Binding data reported herein for aminoglycoside compounds with eukaryotic yeast ribosomes are similar to binding data for said aminoglycoside compounds with ribosoimes in bacteria and with eukaryotic A-site rRNA constructs.
(§4) 5-Carboxytetramethylrhodamine-labeled paromomycin (CRP) and tobramycin (CRT) concentrations were determined spectroscopically at 550 nm using a molar extinction coefficient of 6.00×10 4 M −1 cm −1. Fluorescence anisotropy measurements were performed on a Perkin-Elmer LS-50B luminescence spectrometer equipped with a thermostat accurate to ±0.1° C. as indicated previously (Wang, Y., Hamasaki, K., & Rando, R. R. (1997) Biochemistry 36, 768-779). The tracer solution was excited at 550 nm and monitored at 580 nm. The integration time was 5 s. For every point, 6 measurements were taken, and their average values were used for calculation. Measurements were carried out in a buffer solution containing 150 mM NaCl, 5 mM KCl, 1 mM CaCl2, 1 mM MgCl2, and 20 mM HEPES (pH 7.5). Prior to measurements, RNA constructs were renatured by incubating in binding buffer {150 mM NaCl, 5 mM KCl, 1 mM CaCl2, 1 mM MgCl2, and 20 mM HEPES (pH 7.5)} for 3 minutes at 90° C. followed by slow cooling to 25° C.
(§5) Equation 1 was used for the determination of the dissociation constant (Kd) for the interactions between RNA or ribosome and CRP. A=A0+DA{(RNA)0+(CRP)0+Kd−({(RNA)0+(CRP)0+Kd}^2−4(RNA)0(CRP)0)½}/2 where A and A0 are the fluorescence anisotropy of CRP in the presence and absence of RNA, respectively, and DA is the difference between the fluorescence anisotropy of CRP in the presence of an extrapolated infinite concentration of RNA minus the fluorescence anisotropy in the absence of RNA. (RNA)0 and (CRP)0 are the initial concentrations of RNA and CRP, respectively.
(§6) Equation 2 is used for the calculation of the KD values in the competition binding assay. (aminoglycoside)0={KD(A−−A)/Kd(A−A0)+1}{(RNA)0−Kd(A−A0)/(A−−A)−(CRP)0(A−A0)/(A−−A)} where KD is the dissociation constant between the RNA and the aminoglycosides; (aminoglycoside)0 is the initial concentration of the aminoglycosides; AL is anisotropy of completely bound tracer. Both Kd and KD were determined by non-linear curve fitting using the equations described above, and are presented as mean values of three independent measurements.
The purification of yeast 80S ribosomes from S. cerevisiae strain YSB 758 was carried out according to the published procedure (Verschoor, A., Warner, J. R., Srivastava, S., Grassucci, R. A., & Frank, J. (1997) Nucl. Acid Res. 26, 655-661). S. cerevisiea YSB 758 were grown for 12 hrs at 30° C. in 2L of YPD medium, containing: 20 g bacto peptone, 20 g glucose, 10 g yeast extract and 0.15 g tryptophan per 1 L, pH 7.0. The cells were lysed by 5-10 cycles of 1 min vigorous shaking with glass beads with a vortex, followed by cooling on ice. Clarified cell extract (about 9 mL total, used in 6 portions in 1.5 mL aliqouts) was carefully loaded on top of 2 mL of a cushion, composed of 10% sucrose and 5% ammonium sulfate dissolved in buffer YR1 (20 mM HEPES pH=7.4, 16 mM magnesium chloride, 100 mM potassium chloride, 5 mM DTT, and 0.5 mM EDTA). The ribosomes were collected by centrifugation in Beckman TL100.3 rotor at 75000 rpm for 3 h. The supernatants were carefully discarded and ribosomes were collected in buffer YR1. […]

E. coli (ATCC 25922) [3] = experiment: MIC, wild type E. coli; assay type: cell-based; details: growth inhibition greater than 90%
Method: as §2

E. coli (ATCC 25922) [4] = experiment: Bactericidal activity (bactericide index); assay type: cell-based; details: 3 h incubation, FIG. 8
Method: The bactericidal activity of each antibiotic was investigated at concentrations of 0.5-4×MIC in medium E. coli (ATCC 25922) inoculum was added to 0.5 mL medium 2 to OD 600 ˜0.1 together with different antibiotic concentrations. The samples were incubated at 37° C. for 3 hrs, and the bacteria were collected by centrifugation. The bacterial pellets were washed with 0.5 mL of medium 2 and were plated on 1.5% medium 2 agar in 100 mm Petri dishes. The plates were incubated for 1-2 days at 37° C. and mean log 10 change in viable count was calculated and plotted vs drug concentration.

70S ribosome = experiment: Fluorescence anisotropy binding to 70S ribosomes; details: competition with CRP, E. coli ribosomes; read-out: Dissociation constant (KD) with 70S ribosome
Method: as §3, §4, §5, §6
The purification of E. coli (E600) 70S ribosomes was carried out according to the published procedure (Lazaro, E., van den Broek, L. A. G. M., Felix, A. S., Ottenheijm, H. C. J., Ballesta, J. P. G. (1991) Biochemistry 30, 9642-9648). E. coli MRE600 were grown for 12 h in 6L of LB medium (10 g trypton, 5 g yeast extract, 5 g NaCl per 1 L, pH 7.0) at 37° C. Crude ribosomes were precipitated from clarified supernatant by 4 h centrifugation at 25,000 rpm in Beckman SW 28 rotor at 4° C. The ribosome pellets were collected in 5 mL of buffer BR1, containing 10 mM HEPES, pH 7.5, 500 mM ammonium acetate, 100 mM magnesium chloride and 2.5 mM DTT. The ribosome suspension was centrifuged for 20 min at 15000 rpm to be clarified. The clarified sample was loaded over two layers of 20% and 40% sucrose in buffer BR1 and centrifuged for 18 hr at 19000 rpm in Beckman SW28 rotor at 4° C. […]

[5] = tested on: P. aeruginosa (ATCC 27853); experiment: MIC, P. aeruginosa; assay type: cell-based; details: growth inhibition greater than 90%
Method: as §2

[6] = tested on: E. coli (ATCC 25922) transformed with the plasmid pMM, bearing the APH(3')IIa gene; experiment: Antibiotic activity disk assay, kanamycin/neomycin resistant E. coli; assay type: cell-based; details: FIG. 7B
Method: as §1
For the antibiotic disk assay, […] of each bacterial inoculum was mixed with 10 mL of melted agar (1.5% medium 2 agar, BD Bioscience) at 50-55° C. and poured onto 100 mm Petri dishes. Sterile Whatmann 3 MM 5 mm paper disks were soaked with antibiotic solutions and allowed to dry. The disks were positioned evenly on the surface of bacterial-inoculated solid agar and the plates were incubated at 37° C. for 1-2 days. MIC and bactericide index measurements.

NCC1OC(OC2C(N)CC(N)C(O)C2O)C(N)C(O)C1O [D-Neamine]
Minimal inhibitory concentration (MIC), E. coli kan/neo resistant [1]: >6400 µM | IC50 [2]: 38 µM | Kd (80S ribosome): 1.14 ± 0.25 µM | Minimal inhibitory concentration (MIC), E. coli (E. coli (ATCC 25922) [3]): 150 µM (≈ 48.4 µg/mL) | Concentration at which bactericidal effect begins (E. coli (ATCC 25922) [4]): 75 µM | Kd (70S ribosome): 5.45 ± 0.68 µM | Minimal inhibitory concentration (MIC), P. aeruginosa [5]: 500 µM (≈ 161 µg/mL) | Antibiotic activity in disk assay, kanamycin/neomycin resistant E. coli [6]: selective resistance towards D-neamine; also recorded: essentially abolished
